The subject of series [1] is HIV-1 89.6. The series is described as follows: HIV replication assay (HIV-1 p24 antigen ELISA) in HIV-infected THP-1 and MT-2 cells. It is filed as cell-based. As to conditions: for Extent of PMO-induced Inhibition of HIV replication: HIV-1 89.6, measured by gag p24 production, gene-specific PMO antisense. An excerpt: Introduction of antisense PMO into HIV-infected THP-1 or MT-2 cells. Antisense PMO molecules, for delivery purposes, are typically converted to a paired duplex together with a partially complementary cDNA oligonucleotide in the weakly basic delivery reagent ethoxylated polyethylenimine (EPEI) (Summerton, supra). The anionic complex binds to the cell surface, is taken up by endocytosis and eventually released into the cytosol. A protocol for optimum uptake of antisense PMO in THP-1 and MT-2 cells was developed using a modification of the EPEI method. PMO-AS were obtained from GeneTools (Genetools, LLC, One Summerton Way, Philomath, Oreg. 97370).
Briefly, loading into target cells was accomplished by complexing the PMO with a proprietary loading reagent, Ethoxylated Polyethylenimine (EPEI). Target cells (MT-2 or THP-1) were introduced into snap cap conical tubes (5×10^5 cells/tube) in 900 μl serum free RPMI and the EPEI-PMO complex was added for 4 hours at 37° C. in a 7% CO2 atmosphere. The PMO-EPEI complex was prepared by diluting 5 μl PMO in 40 μl sterile RNase-free water, adding 5 μl EPEI, vortexing and incubating the sample for 20 minutes at room temperature. The sample was then mixed with 50 μl serum-free RPMI and added to the target cells to yield a final volume of 1 ml. At the end of the loading period, cells were gently pelleted and the PMO solution was removed by aspiration. After a further wash, cells were incubated in complete RPMI for 12 hrs prior to HIV infection to allow for recovery and initiation of PMO action.
HIV-1 Infection. PMO-treated THP-1 or MT-2 cells were infected with 50 μl of concentrated HIV-1 89.6 diluted to 1 ml in serum-free RPMI. The following control cultures were identically infected: (i) to control for any non-specific effect of the loading protocol, cells exposed to EPEI alone during the loading procedure; (ii) as a positive control for normal HIV infection, cells that were not exposed to either EPEI or EPEI-PMO; (iii) as a control for HIV inhibition, cells infected with HIV in the presence of 2 μM AZT and maintained in AZT throughout.
Cells were exposed to HIV for 4 hours. The inoculum was removed by 3 cycles of pelleting and rinsing. The cells were resuspended in 1.5 ml of complete RPMI and 0.5 ml immediately removed at Time 0 to leave a final volume of 1 ml. The Time 0 sample served as a measure of residual virus. At each harvest time (T1 through T4), 0.5 ml of supernatant was removed and replaced with an equal volume of complete RPMI. Samples were stored at −80° C. until evaluation using a p24 ELISA assay (described below). Each experimental variable and control was performed in duplicate. T1 through T4 typically corresponded to 16, 24, 40 and 48 hrs PI, respectively.
Validation of KSHV-induced gene sequences; HIV-1 p24 antigen ELISA. To monitor the effect of PMO-targeting of cellular proteins on HIV replication, supernatants harvested from PMO-treated and control THP and MT-2 cells were assayed using an HIV p24 antigen ELISA. The rationale behind this assay is described in the following paragraph.
The HIV-1 gag protein p24 is the major internal structural component of the virion core. The Coulter p24 assay is an enzyme-liked immunosorbent assay (ELISA) performed using a commercially available kit (Beckman Coulter). It was developed specifically for the detection and quantitation of HIV-1 p24 in plasma or serum, for clinical purposes, or in tissue culture supernatants, to monitor virus replication. Each kit contains a 96-well microtiter tray pre-coated with a monoclonal antibody to p24. A specimen of plasma, serum or tissue culture supernatant is added to each well along with a viral lysis buffer and incubated to allow any p24 antigen present to bind to the coated well. Following a wash, biotinylated human anti-HIV IgG is added and incubated to allow complexing to any bound p24. Following another wash, strepatavidin-HRP is added to complex with any bound biotinylated complexes. […]
(In an ELISA, binding on a coated surface is turned into a signal by an enzyme label.)

In a further series the test system is HIV-infected MT-2 cells. The series is described as follows: HIV-induced syncytia formation in MT-2 cells. As to conditions: 48 hours post infection. In kind it is cell-based, human. As to the method: The panels of FIG. 7 show the relative extent of HIV-induced syncytia formation in MT-2 cells at 48 hours post infection under various conditions. “Control” cells are HIV-infected cells, but are not treated with any test agent. “DMSO” treatment alone is also included as a control. Other treatments include, AZT, PP3 and PP2, all solubilized in DMSO.

Series [2] concerns mitochondrial respiration in viable cells. The series is described as follows: XTT respiration assay to assess compound toxicity. It is filed as cell-based. As to conditions: at the concentrations used (20/40 μM Doxepin, 50/100 μM Pyrilamine, 50/100 μM Acyclovir, 20 μM PP2, 20 μM PP3). An excerpt: The agents tested are cross-referenced to the respective bar graphs as shown in insert of the right panel. […] Briefly, the XTT assay is based on the cleavage of XTT (sodium 3-[1-(phenylamino-carbonyl)-3,4-tetrazolium]-bis (4-methoxy-6-nitro) benzene sulfonic acid hydrate) to form formazan by mitochondrial respiration in viable cells (see, e.g., Marshall et al., Growth Regul. 5:69-84, 1995).
Background: Tetrazolium assays rely on reduction of a dye to a coloured formazan, in cell work by metabolically active cells.

In a further series the test system is c-yes mRNA. The series is described as follows: Quantitative RT-PCR of c-yes mRNA in siRNA-transfected Huh7 cells. In kind it is cell-based, human. The following applies: 2 μl of 20 μM siRNA per 300,000 cells, harvested 24 hpi. The procedure:
Huh7 cells were transfected with either of c-yes-specific siRNAs 214 or 316, or a control siRNA directed against Lamins A and C. Transfection of 300,000 cells was carried out with 2 μl of a 20 μM siRNA (Dharmacon) and 1 μl Oligofectamine (Invitrogen) according to the manufacturer's protocol. Cells were […] 24 hours post-transfection, and cells and supernatant harvested at 24 hpi. 1 μg total cellular RNA was used for quantitative RT-PCR with c-yes-specific primers.

For the next series, the system named is WNV (NY1999). The series is described as follows: Infectious WNV in culture supernatant of SKN-MC cells (plaque assay on Vero cells). It is filed as cell-based, West Nile virus. As to conditions: multiplicity of infection 5, 20 μM, 22 hours post-infection (20 h post-PP2 addition). An excerpt: SKN-MC neutoblastoma cells were infected with WNV at a multiplicity of 5.

Another series has as its system WNV. The series is described as follows: Infectious WNV within infected SKN-MC cell lysates (plaque assay on Vero cells). In kind it is cell-based, West Nile virus. The procedure: Additionally, infectious virus within infected cell lysates was decreased almost 10^6-fold four hours post-addition of PP2 (FIG. 8B, gray bars; and FIG. 15, left panel). […] Specifically, SKN-MC cells were infected with WNV as above. At 2 hpi, cells were treated with PP2 at the indicated final concentrations. At 20 hpi, cells were re-fed with media containing fresh PP2 at the same concentration. Cells were washed 3-times with phosphate buffered saline (PBS), resuspended in 250 μl PBS, and then lysed by 3 successive freeze/thaws. Lysates were centrifuged at 13,000×g for 5 minutes, followed by collection of the supernatant. Infectious virus in soluble lysate was measured by plaque assay on Vero cells. Samples were collected 4-hours post-addition of fresh PP2 (gray bars) and 24 hours post addition of fresh PP2 (black bars). 24-hours post-addition of PP2, virus within the infected cell was approximately 500-fold lower, indicating some recovery from the effect of the drug (FIG. 8B, black bars).

For the next series, the system named is WNV RNA. The series is described as follows: Quantitative RT-PCR (Taqman) of WNV RNA within infected SKN-MC cells. The following applies: 4 hours post PP2 addition, normalized to β-actin. It is filed as cell-based, West Nile virus. The procedure: Specifically, cells were prepared as described above in relation to FIG. 8B. Four hours post fresh PP2 addition, RNA was isolated from 200 μl of cell lysate by Trizol reagent (Invitrogen), and 1 μg total RNA was used in a quantitative RT-PCR reaction (Taqman) using WNV-specific primer and probe set and standards. An additional RT-PCR was performed using β-actin-specific primers and probe, for an internal control. WNV RNA quantities were normalized to the β-actin values.

Another series deals with WNV E protein. The series is described as follows: Endo H / PNGase F sensitivity of WNV E protein in infected Vero cells (western blot). As to conditions: WNV multiplicity 3, PP2 added 1 hpi, 24 hpi, consistent at 48 h. In kind it is cell-based, West Nile virus. The procedure:
Inhibition of src-family kinases (SFKs) may result in mis-localization or aberrant trafficking of WNV proteins, thereby interfering with formation of infectious particles. To test this hypothesis, lysates from WNV-infected cells (with or without PP2) were treated with Endoglycosidase H (Endo H) or Peptide N-glycosidase F (PNGase F).
Endo H removes immature high-mannose glycans from proteins. High-mannose structures are added to proteins in the endoplasmic reticulum (ER). Such structures are trimmed and further modified in the Golgi, conferring resistance to endo H. Sensitivity to endo H is therefore indicative of proteins that have not advanced beyond the endoplasmic reticulum in the secretory pathway (Maley, et al., Anal. Biochem. 180:195, 1989.
PNGase F will remove all glycan moieties regardless of modification.
Methods. Vero cells were infected with WNV (multiplicity=3) and treated with PP2 (or DMSO as a control) 1 h post-infection (hpi). At 24 or 48 hpi, cells were lysed in buffer containing 1% NP-40. Lysates were denatured and treated with endo H or PNGase F for 1 h. Samples were resolved by SDS-PAGE, and WNV E was detected by western blotting.

For series [3], the system named is HIV-1 89.6. The series is described as follows: HIV replication assay (HIV-1 p24 antigen ELISA) in HIV-infected THP-1 and MT-2 cells. As to conditions: MT-2 cells infected with HIV 89.6; continued presence of 10 μM. It is filed as cell-based.
Setting [4] is: PMO-treated HIV-infected MT-2 cells.
Where [5] appears, read: PMO-treated HIV-infected THP-1 cells.

Turning to “HMG20B (antisense CGCCCAGCATCTTGGTGATCTCGGG; all phosphorodiamidate morpholino (PMO))”, the “Extent of PMO-induced Inhibition of HIV replication” value in the series with HIV-1 89.6 [1] is “positive”. The “inhibition of HIV replication (HIV p24 gag production)” value (from here on “inhibition … (HIV p24 gag production)”) in the series on HIV-1 89.6 [1] (setting [4]) and in the series with HIV-1 89.6 [1] (setting [5]) was “particularly effective at reproducibly inhibiting HIV replication” in each case.

For the compound `Cc1cn([C@H]2C[C@H](N=[N+]=[N-])[C@@H](CO)O2)c(=O)[nH]c1=O` [AZT], the HIV-induced syncytia formation result in the series on HIV-infected MT-2 cells is reported as “substantially reduced syncytia formation”.

Regarding `CN(C)CCC=C1c2ccccc2COc2ccccc21` [doxepin], the “compound toxicity (XTT respiration assay)” value in series [2] was “Except for the higher concentration of doxepin, the compounds were not toxic”.

“HRH1 (antisense GCGAAAGAGCAGCCGCCAGTTATGG; all phosphorodiamidate morpholino (PMO))”: the “Extent of PMO-induced Inhibition of HIV replication” value in the series on HIV-1 89.6 [1] is recorded as “positive”. In addition, the “inhibition … (HIV p24 gag production)” value in the series with HIV-1 89.6 [1] (setting [4]) and in the series on HIV-1 89.6 [1] (setting [5]) was “particularly effective at reproducibly inhibiting HIV replication” throughout.

Turning to “ARF1 (antisense ATGCTTGTGGACAGGTGGAAGGACA; all phosphorodiamidate morpholino (PMO))”, the “Extent of PMO-induced Inhibition of HIV replication” value in the series with HIV-1 89.6 [1] is listed as “(negative)”. Further, the “inhibition … (HIV p24 gag production)” value in the series on HIV-1 89.6 [1] (setting [4]) is on record as “little or no affect on HIV replication”.

In the case of “YES (antisense TTTCTTTACTTTTAATGCAGCCCAT; all phosphorodiamidate morpholino (PMO))”, the “Extent of PMO-induced Inhibition of HIV replication” value in the series with HIV-1 89.6 [1] is given as “positive”. In addition, the “inhibition … (HIV p24 gag production)” value in the series with HIV-1 89.6 [1] (setting [4]) and with HIV-1 89.6 [1] (setting [5]) was “particularly effective at reproducibly inhibiting HIV replication” throughout.

“c-yes-specific siRNA 214 (guide AACGCCUUUUGGAGGUGCAUC; chemistry not given here; listed as Homo sapiens)”: the “c-yes mRNA” value in the series with c-yes mRNA is recorded as “reduction of c-yes mRNA”.

On to `CC(C)(C)n1nc(-c2ccc(Cl)cc2)c2c(N)ncnc21` [PP2, 4-Amino-5-(4-chlorophenyl)-7-(t-butyl)pyrazolo[3,4-d]pyrimidine], for which the “anti-HIV activity (p24 production)” value in the series with HIV-1 89.6 [1] (HIV-infected cells, 20 μM) is given as “substantial inhibition of HIV”. Moreover, the HIV-induced syncytia formation entry with HIV-infected MT-2 cells is on record as “substantially reduced syncytia formation”. For the same compound, the “decrease of infectious WNV in the supernatant” value in the series with WNV (NY1999) came out at 30 fold. In addition, the “virus within the infected cell, lower than untreated” value in the series on WNV (24 hours post-addition of fresh PP2) is “approximately 500 fold”. Further, the “decrease of infectious virus within infected cell lysates” value with WNV (four hours post-addition of fresh PP2) is listed as ~10^6 fold. For the same compound, the “viral RNA within infected cells, treated vs untreated” value with WNV RNA is reported as “no significant difference”. In addition, the “proportion of endo H-resistant population of WNV E protein” value in the series on WNV E protein is listed as “dramatically decreased”. Further, the “HIV p24 production” value in the series on HIV-1 89.6 [3] is “substantial decrease”.

These data come from patent US20070087982A1, “Methods of treatment and diagnosis using modulators of virus-induced cellular gene sequences” (priority 2003, published 2007).
